Results taken from PubChem BioAssay AID1963831 (Molecular Pharmacology Branch, DTP, NCI, 2024).
Each block holds one compound with its values, some of them ahead of it.

System: 889142-216-R-J1-PDC complex spheroid viability
Assay: Anticancer human tumor 889142-216-R-J1-PDC patient-derived bladder carcinoma cell line growth inhibition [POLQ]
Settings: for IC50: curve of first compound; for viability, T/C: stronger effect = lower value
Procedure, shortened: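 Complex spheroid viability model combining PDC tumour cells with endothelial (HUVEC) and MSC stromal cells. Novobiocin, ART-558 or RP6685 were tested singly and in combination with standard and investigational anticancer drugs. Each was titrated in half-log steps from near clinical Cmax, or from 10 microM where Cmax was unknown.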

[1] = second compound 0.0316 µM, first compound 0.00316 µM
[2] = second compound 0.0316 µM, first compound 0.01 µM
[3] = second compound 0.0316 µM, first compound 0.0316 µM
[4] = second compound 0.0316 µM, first compound 0.1 µM
[5] = second compound 0.0316 µM, first compound 0.316 µM
[6] = second compound 0.0316 µM, first compound 1 µM
[7] = second compound 0.1 µM, first compound 0.00316 µM
[8] = second compound 0.1 µM, first compound 0.01 µM
[9] = second compound 0.1 µM, first compound 0.0316 µM
[10] = second compound 0.1 µM, first compound 0.1 µM
[11] = second compound 0.1 µM, first compound 0.316 µM
[12] = second compound 0.1 µM, first compound 1 µM
[13] = second compound 0.316 µM, first compound 0.00316 µM
[14] = second compound 0.316 µM, first compound 0.01 µM
[15] = second compound 0.316 µM, first compound 0.0316 µM
[16] = second compound 0.316 µM, first compound 0.1 µM
[17] = second compound 0.316 µM, first compound 0.316 µM
[18] = second compound 0.316 µM, first compound 1 µM
[19] = second compound 1 µM, first compound 0.00316 µM
[20] = second compound 1 µM, first compound 0.01 µM
[21] = second compound 1 µM, first compound 0.0316 µM
[22] = second compound 1 µM, first compound 0.1 µM
[23] = second compound 1 µM, first compound 0.316 µM
[24] = second compound 1 µM, first compound 1 µM
[25] = second compound 3.16 µM, first compound 0.00316 µM
[26] = second compound 3.16 µM, first compound 0.01 µM
[27] = second compound 3.16 µM, first compound 0.0316 µM
[28] = second compound 3.16 µM, first compound 0.1 µM
[29] = second compound 3.16 µM, first compound 0.316 µM
[30] = second compound 3.16 µM, first compound 1 µM
[31] = second compound 10 µM, first compound 0.00316 µM
[32] = second compound 10 µM, first compound 0.01 µM
[33] = second compound 10 µM, first compound 0.0316 µM
[34] = second compound 10 µM, first compound 0.1 µM
[35] = second compound 10 µM, first compound 0.316 µM
[36] = second compound 10 µM, first compound 1 µM
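Note: spheroids exposed to compounds for seven days.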
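Throughout, for viability, T/C: 100% = DMSO vehicle control viability.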

SMILES: C=CCn1c(=O)c2cnc(Nc3ccc(N4CCN(C)CC4)cc3)nc2n1-c1cccc(C(C)(C)O)n1 + Nc1ccc(C#CCN(C(=O)Cc2ncc(C(F)(F)F)cc2C(F)(F)F)c2ccc(F)cc2)nn1
IC50 (second compound 0.0316 µM): > 1000 nM | IC50 (second compound 0.1 µM): > 1000 nM | IC50 (second compound 0.316 µM): > 1000 nM | IC50 (second compound 1 µM): > 1000 nM | IC50 (second compound 3.16 µM): > 1000 nM | IC50 (second compound 10 µM): > 1000 nM | viability, T/C [1]: 113% | viability, T/C [2]: 118% | viability, T/C [3]: 88.4% | viability, T/C [4]: 87.2% | viability, T/C [5]: 74.8% | viability, T/C [6]: 58.2% | viability, T/C [7]: 114% | viability, T/C [8]: 119% | viability, T/C [9]: 108% | viability, T/C [10]: 85.1% | viability, T/C [11]: 64.5% | viability, T/C [12]: 56.2% | viability, T/C [13]: 106% | viability, T/C [14]: 79.1% | viability, T/C [15]: 78% | viability, T/C [16]: 80.7% | viability, T/C [17]: 72.5% | viability, T/C [18]: 62.4% | viability, T/C [19]: 101% | viability, T/C [20]: 83.8% | viability, T/C [21]: 99.4% | viability, T/C [22]: 78.4% | viability, T/C [23]: 81.1% | viability, T/C [24]: 58.9% | viability, T/C [25]: 98.9% | viability, T/C [26]: 87.4% | viability, T/C [27]: 98.1% | viability, T/C [28]: 90.3% | viability, T/C [29]: 84.5% | viability, T/C [30]: 59.1% | viability, T/C [31]: 97.4% | viability, T/C [32]: 96% | viability, T/C [33]: 107% | viability, T/C [34]: 102% | viability, T/C [35]: 66.4% | viability, T/C [36]: 54.6%

SMILES: CCCS(=O)(=O)Nc1ccc(F)c(C(=O)c2c[nH]c3ncc(-c4ccc(Cl)cc4)cc23)c1F + Nc1ccc(C#CCN(C(=O)Cc2ncc(C(F)(F)F)cc2C(F)(F)F)c2ccc(F)cc2)nn1
IC50 (second compound 0.0316 µM): 7490 nM | IC50 (second compound 0.1 µM): 7280 nM | IC50 (second compound 0.316 µM): 7560 nM | IC50 (second compound 1 µM): > 10000 nM | IC50 (second compound 3.16 µM): 9530 nM | IC50 (second compound 10 µM): > 10000 nM | viability, T/C [3]: 97.8% | viability, T/C [4]: 118% | viability, T/C [5]: 122% | viability, T/C [6]: 98.3% | viability, T/C (second compound 0.0316 µM, first compound 3.16 µM): 71.5% | viability, T/C (second compound 0.0316 µM, first compound 10 µM): 42.8% | viability, T/C [9]: 114% | viability, T/C [10]: 98.7% | viability, T/C [11]: 92.8% | viability, T/C [12]: 96.5% | viability, T/C (second compound 0.1 µM, first compound 3.16 µM): 69.6% | viability, T/C (second compound 0.1 µM, first compound 10 µM): 41.7% | viability, T/C [15]: 105% | viability, T/C [16]: 101% | viability, T/C [17]: 87.4% | viability, T/C [18]: 78.6% | viability, T/C (second compound 0.316 µM, first compound 3.16 µM): 80.3% | viability, T/C (second compound 0.316 µM, first compound 10 µM): 40.6% | viability, T/C [21]: 105% | viability, T/C [22]: 81.6% | viability, T/C [23]: 129% | viability, T/C [24]: 76.2% | viability, T/C (second compound 1 µM, first compound 3.16 µM): 63.3% | viability, T/C (second compound 1 µM, first compound 10 µM): 49.4% | viability, T/C [27]: 93.7% | viability, T/C [28]: 92.1% | viability, T/C [29]: 116% | viability, T/C [30]: 94.2% | viability, T/C (second compound 3.16 µM, first compound 3.16 µM): 92.5% | viability, T/C (second compound 3.16 µM, first compound 10 µM): 47.9% | viability, T/C [33]: 93.2% | viability, T/C [34]: 103% | viability, T/C [35]: 98.7% | viability, T/C [36]: 96.8% | viability, T/C (second compound 10 µM, first compound 3.16 µM): 77.5% | viability, T/C (second compound 10 µM, first compound 10 µM): 59.2%

IC50 (second compound 0.0316 µM): 19.5 nM | IC50 (second compound 0.1 µM): 16 nM | IC50 (second compound 0.316 µM): 13.3 nM | IC50 (second compound 1 µM): 12.6 nM | IC50 (second compound 3.16 µM): 22.4 nM | IC50 (second compound 10 µM): 11.7 nM
SMILES: CCc1c2c(nc3ccc(O)cc13)-c1cc3c(c(=O)n1C2)COC(=O)[C@]3(O)CC + Nc1ccc(C#CCN(C(=O)Cc2ncc(C(F)(F)F)cc2C(F)(F)F)c2ccc(F)cc2)nn1
viability, T/C [1]: 63.1% | viability, T/C [2]: 61.6% | viability, T/C [3]: 41.2% | viability, T/C [4]: 32.9% | viability, T/C [5]: 25.2% | viability, T/C [6]: 9.02% | viability, T/C [7]: 61.2% | viability, T/C [8]: 51.1% | viability, T/C [9]: 44.6% | viability, T/C [10]: 34.8% | viability, T/C [11]: 30.4% | viability, T/C [12]: 8.83% | viability, T/C [13]: 66.6% | viability, T/C [14]: 50% | viability, T/C [15]: 38.6% | viability, T/C [16]: 34% | viability, T/C [17]: 23.9% | viability, T/C [18]: 11.5% | viability, T/C [19]: 70% | viability, T/C [20]: 46.6% | viability, T/C [21]: 41.3% | viability, T/C [22]: 30.5% | viability, T/C [23]: 23.4% | viability, T/C [24]: 11.2% | viability, T/C [25]: 59.3% | viability, T/C [26]: 65.6% | viability, T/C [27]: 39.4% | viability, T/C [28]: 35.8% | viability, T/C [29]: 30.9% | viability, T/C [30]: 8.37% | viability, T/C [31]: 57.4% | viability, T/C [32]: 52.2% | viability, T/C [33]: 41% | viability, T/C [34]: 31.6% | viability, T/C [35]: 28.3% | viability, T/C [36]: 6.89%
